Data taken from patent US8785400B2, “Methods and compositions relating to islet cell neogenesis” (CureDM Group Holdings, LLC, priority 2006, dated 2014).

Tests used:
[1] = doses up to 10,000 IU/day; cited from earlier work
[2] = test system: streptozocin-induced diabetic mouse; assay: Streptozocin-induced diabetic mouse (Example 6); format: in vivo; settings: streptozocin mice; for mean reduction in glucose: from baseline, placebo 9.5%
Excerpt: The streptozocin-induced diabetic mouse is a convenient animal model of type 1 diabetes because researchers are able to chemically induce diabetes under controlled conditions rather than waiting for mice to become diabetic naturally or by forcing diabetes through prescribed obesity. Based on experience with the streptozocin model in the rat, a high degree of variability was anticipated for the induction of the disease in mice and therefore 60 mice were induced with streptozocin. Mice were injected intraperitoneally with streptozocin at 40 mg/kg in citrate buffer, pH4.5, on 5 consecutive days in an attempt to render them diabetic. A mouse was considered diabetic once its blood glucose level was greater than 16.7 mmol/L (300 mg/dL) for at least 1 week. If the blood glucose level of any animal became too high (>400 mg/dL) the animal was treated with an effective amount of insulin. In this example, 60 male mice, ranging from 6-8 weeks old at the outset of the study, were treated with streptozocin as described above. Those mice that were declared diabetic were then used to test the effectiveness of HIP2 as compared to other test agents.
Animals were group housed in compliance with the National Research Council “Guide for the Care and Use of Laboratory Animals”. The animals received 12 hours light/12 hours dark, except when room lights were turned on during the dark cycle to accommodate study procedures. Room temperature was maintained between 18 to 26° C. at all times. Relative humidity was maintained between 30-70% at all times. All animals were given access to Harlan Teklad Rodent Diet or equivalent and tap water via water bottle. Animals were allowed to acclimate to their new environment for a minimum of 7 days prior to first dosing.
Mice were randomly divided and assigned to study groups. Each study group was assigned treatment with one of 5 test agents (see Treatment section below). Prior to being treated, each mouse was tested for diabetes via monitoring their blood glucose levels. After confirmation that the mice were diabetic (blood glucose levels greater than 16.7 mmol/L (300 mg/dL) for at least 1 week) the mice were dosed with their respective test agent.
Each study group received doses of one of the following test agents: HIP2, HIP1, HIP, Hamster INGAP (SEQ ID NO:1) or isotonic saline “Vehicle” (0.9% NaCl) (negative control). Mice were given doses of their respective agent interperitoneally twice daily (am and pm, +/−2 hours for each administration) at 250 ug/dose, in 100 ul dose volume, for 28 consecutive days. Test agents were prepared once daily by dissolving the appropriate amount of test agent in isotonic saline to result in a 2.5 mg/ml solution. Blood glucose levels were tested every 3 days, at the same time each day, using a glucometer. If the blood glucose level in any animal became too high, the animal was treated with insulin. At the end of the treatment, all surviving animals were euthanized by CO2 asphyxiation following terminal blood collection. Blood samples were collected under CO2 cardiocentesis. The plasma was separated and then frozen at −80° C. For histological analysis, the pancreas from each mouse was removed and snap-frozen.
Blood glucose levels are measured every 3 days and tracked to evaluate differences in glucose levels.

[3] = test system: pancreatic islets of treated mice; assay: Quantitative immunohistochemistry image analysis of mouse pancreata (Example 7); format: in vivo
Excerpt: The islet mass of the placebo group was 854,362 μm (2) compared with 2,161,782 μm (2) in HIP-treated mice.
Islet size was not different between HIP treated and control group, whereas, islet number and mass was increased.

[4] = test system: human pancreatic progenitor cells; assay: Inverted microscopy of human ductal/progenitor tissue cultures (Example 4); format: cell-based
type 1 diabetes patients = settings: single course; after onset of type 1 diabetes, some patients; cited from earlier work
diabetic patients = settings: cited from earlier work

Q: For `C=C1CC[C@H](O)C/C1=C/C=C1\CCC[C@]2(C)[C@@H]([C@H](C)CCCC(C)C)CC[C@@H]12` [Vitamin D, cholecalciferol], which adverse effects [1] is on record?
A: No adverse effects

Q: Which “overall insulin requirements lower compared to controls” value [2] does the source give for “HIP: Human proIslet Peptide, 15-mer human counterpart of the hamster INGAP peptide (SEQ ID NO:2) (IGLHDPTQGTEPNGE; Fragment of naturally occurring human REG3 protein)” here?
A: 32%

Q: What about the “insulin requirements (and rate of decrease)” value ([2]; compared to placebo) of the same compound?
A: significant reduction

Q: And the “mean reduction in glucose” value [2]?
A: 26.9%

Q: And the “islet size vs placebo/control” value ([3]; mouse, in vivo)?
A: not statistically different

Q: And the “number of islets counted greater than placebo group” value ([3]; p=0.022)?
A: 62%

Q: What about the “total islet mass greater than placebo group” value ([3]; p=0.05) of the same compound?
A: 153%

Q: And the islets counted ([3]; placebo 280)?
A: 454

Q: What about the islet mass ([3]; placebo 854,362) of the same compound?
A: 2,161,782 μm (2)

Q: And the “total islet mass (qualitative)” value ([3]; vs control)?
A: increased

Q: What about the “total islet number (qualitative)” value ([3]; vs control) of the same compound?
A: increased

Q: What about the “morphology of progenitor tissue cultures (FIG. 7A)” value ([4]; day 2 of treatment (day 12)) of the same compound?
A: forming a nidus of new insulin producing islets

Q: And the “morphology of progenitor tissue cultures (FIG. 7B)” value ([4]; day 6 of treatment (day 18))?
A: forming insulin producing islet like structure

Q: With “hOKT3gamma1 (Ala-Ala): anti-CD3 monoclonal antibody” as the compound, how does the “duration of improvement in C-peptide responses and clinical parameters” value (type 1 diabetes patients) read?
A: at least 2 years

Q: Which “overall insulin requirements lower compared to controls” value [2] does the source give for “hamster INGAP: non-human islet neogenesis associated peptide, hamster sequence, positive control (SEQ ID NO:1) (IGLHDPSHGTLPNGS; Fragment of naturally occurring hamster INGAP protein)” here?
A: 14%

Q: And the “mean reduction in glucose” value [2]?
A: 20%

Q: What about the “patients with a >50% increase in GAD65 antibody titers” value (diabetic patients; 300 mg/day, Phase II) of the same compound?
A: 22 % of the patients

Q: What about the C-peptide secretion (diabetic patients; 600 mg/day) of the same compound?
A: increase in C-peptide secretion

Q: And the tolerability (diabetic patients; Phase I and II trials)?
A: well tolerated

Q: And the “drop out due to injection site reactions” value (diabetic patients; Phase II trial, diabetic patients)?
A: high drop out

Q: And the effectiveness (diabetic patients; Phase II trial)?
A: Little effectiveness

Q: And the “hemoglobin A1C” value (diabetic patients; type 2 diabetes patients)?
A: fell
